“And” between values parts separate entries of the source, which are not always exact repeats. Equal entries are not always repeated. Where two headings read alike, the source gives them in different places.
Assays:
FLT3_autoinhibited = target: T1, FLT3_autoinhibited (Homo sapiens, UniProt P36888); test: Eurofins/DiscoverX cell free kinase assay, percent control; format: binding; settings: for per_control_1000nM FLT3_autoinhibited: 1000 nM compound; for per_control_10000nM FLT3_autoinhibited: 10000 nM compound
T1 construct: purchased Eurofins/DiscoverX
T1 sequence (P36888 564-993 limits assumed): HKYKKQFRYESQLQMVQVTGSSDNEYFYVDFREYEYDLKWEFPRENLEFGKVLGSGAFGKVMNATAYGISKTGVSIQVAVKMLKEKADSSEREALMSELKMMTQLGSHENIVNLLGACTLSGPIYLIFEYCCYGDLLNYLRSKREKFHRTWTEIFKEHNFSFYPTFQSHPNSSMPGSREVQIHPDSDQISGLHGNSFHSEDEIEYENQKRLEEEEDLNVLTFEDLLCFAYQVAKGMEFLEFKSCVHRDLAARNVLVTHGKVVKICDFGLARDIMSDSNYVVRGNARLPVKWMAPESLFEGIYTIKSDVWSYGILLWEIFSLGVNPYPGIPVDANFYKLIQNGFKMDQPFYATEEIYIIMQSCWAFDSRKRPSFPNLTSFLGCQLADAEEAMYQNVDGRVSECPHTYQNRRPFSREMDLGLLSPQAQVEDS
Experimental: (§1) The 3i-compounds underwent activity testing against a panel of 32 bromodomains using the Eurofins/DiscoverX bromoMAX assay, with specific focus on TAF1(2) bromodomain assessed by the KdELECT assay. In a similar manner, kinase activity was evaluated using a panel of 97 kinase proteins using the Eurofins/DiscoverX scanELECT and KdELECT assays, with specific focus on FLT3 protein. An 11-point 3-fold serial dilution of each test compound was prepared in 100% DMSO at 100x final test concentration and subsequently diluted to final concentration (DMSO 1%). […] Percent control was calculated using the following formula: ((test compound signal – positive control signal)/ (negative control signal – positive control signal)) × 100.
(§2) Fig 2 Results of 3i-compound series at concentrations of 1 µM and 10 µM in a cell free Eurofins/DiscoverX assay for kinase and bromodomain proteins. (A) Single-targeted compounds with tyrosine kinase activity but without bromodomain activity. (B) Dual-targeted compounds with both tyrosine kinase and bromodomain activity.

FLT3(D835V) = target: T2, FLT3(D835V) (Homo sapiens, UniProt P36888, D835V); test: as above; format: binding; settings: for per_control_1000nM FLT3(D835V): 1000 nM compound; for per_control_10000nM FLT3(D835V): 10000 nM compound
T2 construct: purchased Eurofins/DiscoverX
T2 sequence (P36888 27-993 D835V): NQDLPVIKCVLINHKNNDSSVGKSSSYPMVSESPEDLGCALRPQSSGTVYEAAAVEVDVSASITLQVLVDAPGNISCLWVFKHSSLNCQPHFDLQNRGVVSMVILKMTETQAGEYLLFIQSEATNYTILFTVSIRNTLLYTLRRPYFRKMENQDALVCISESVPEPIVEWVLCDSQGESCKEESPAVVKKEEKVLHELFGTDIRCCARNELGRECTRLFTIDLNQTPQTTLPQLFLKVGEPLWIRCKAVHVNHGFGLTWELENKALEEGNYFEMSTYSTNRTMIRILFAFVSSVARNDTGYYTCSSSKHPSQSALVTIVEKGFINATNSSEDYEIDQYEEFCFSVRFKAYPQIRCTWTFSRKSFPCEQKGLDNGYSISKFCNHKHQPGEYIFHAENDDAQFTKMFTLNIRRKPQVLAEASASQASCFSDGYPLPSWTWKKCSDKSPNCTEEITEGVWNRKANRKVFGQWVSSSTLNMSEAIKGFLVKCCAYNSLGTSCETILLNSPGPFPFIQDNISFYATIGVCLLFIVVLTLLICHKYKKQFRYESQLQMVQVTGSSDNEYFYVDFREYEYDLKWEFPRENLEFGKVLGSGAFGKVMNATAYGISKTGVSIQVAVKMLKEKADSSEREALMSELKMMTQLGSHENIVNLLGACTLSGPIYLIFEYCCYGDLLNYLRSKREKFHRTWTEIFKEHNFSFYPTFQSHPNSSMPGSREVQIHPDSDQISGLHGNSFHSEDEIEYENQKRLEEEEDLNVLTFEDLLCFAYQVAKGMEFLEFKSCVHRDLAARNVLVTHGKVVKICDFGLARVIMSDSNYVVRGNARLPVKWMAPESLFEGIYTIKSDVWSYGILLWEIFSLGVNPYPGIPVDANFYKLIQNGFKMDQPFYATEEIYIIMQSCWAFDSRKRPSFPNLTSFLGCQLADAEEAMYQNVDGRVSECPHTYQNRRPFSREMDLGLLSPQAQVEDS
Experimental: as §1, §2

PDGFRB = target: T3, PDGFRB (Homo sapiens, UniProt P09619); test: as above; format: binding; settings: for per_control_1000nM PDGFRB: 1000 nM compound; for per_control_10000nM PDGFRB: 10000 nM compound
T3 construct: purchased Eurofins/DiscoverX
T3 sequence (P09619 33-1106): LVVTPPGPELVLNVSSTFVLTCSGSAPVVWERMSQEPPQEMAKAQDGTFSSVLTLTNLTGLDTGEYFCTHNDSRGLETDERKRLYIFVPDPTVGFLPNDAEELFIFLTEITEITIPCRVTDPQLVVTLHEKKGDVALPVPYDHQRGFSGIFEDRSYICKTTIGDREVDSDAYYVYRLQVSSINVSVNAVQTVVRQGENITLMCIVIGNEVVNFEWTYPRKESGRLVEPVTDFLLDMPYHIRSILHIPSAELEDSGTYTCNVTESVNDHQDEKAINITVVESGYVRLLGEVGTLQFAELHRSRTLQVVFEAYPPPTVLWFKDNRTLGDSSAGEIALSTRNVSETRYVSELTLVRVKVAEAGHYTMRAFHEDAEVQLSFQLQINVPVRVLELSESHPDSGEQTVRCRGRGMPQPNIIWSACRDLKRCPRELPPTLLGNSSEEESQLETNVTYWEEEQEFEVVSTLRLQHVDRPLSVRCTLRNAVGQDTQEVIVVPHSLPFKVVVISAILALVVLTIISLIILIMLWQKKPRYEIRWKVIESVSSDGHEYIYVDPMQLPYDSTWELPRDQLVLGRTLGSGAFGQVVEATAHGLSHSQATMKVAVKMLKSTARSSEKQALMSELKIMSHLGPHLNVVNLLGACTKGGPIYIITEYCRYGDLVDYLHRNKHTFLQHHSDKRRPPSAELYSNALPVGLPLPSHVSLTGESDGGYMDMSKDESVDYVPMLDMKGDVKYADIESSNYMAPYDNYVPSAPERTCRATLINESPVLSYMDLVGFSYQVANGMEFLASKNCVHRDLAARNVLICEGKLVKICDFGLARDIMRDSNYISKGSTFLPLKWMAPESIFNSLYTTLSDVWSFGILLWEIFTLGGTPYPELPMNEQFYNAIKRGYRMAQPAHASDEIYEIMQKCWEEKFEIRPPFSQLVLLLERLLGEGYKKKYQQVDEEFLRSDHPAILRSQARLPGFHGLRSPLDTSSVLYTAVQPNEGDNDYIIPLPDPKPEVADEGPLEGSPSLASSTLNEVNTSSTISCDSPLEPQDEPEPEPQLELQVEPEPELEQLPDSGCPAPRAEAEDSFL
Experimental: as §1, §2

FLT3(ITD) = test: as above; format: binding; settings: for per_control_1000nM FLT3(ITD): 1000 nM compound; for per_control_10000nM FLT3(ITD): 10000 nM compound
Experimental: as §1, §2

FLT3(ITD,D835V) = test: as above; format: binding; settings: for per_control_1000nM FLT3(ITD,D835V): 1000 nM compound; for per_control_10000nM FLT3(ITD,D835V): 10000 nM compound
Experimental: as §1, §2

KIT = target: T4, KIT (Homo sapiens, UniProt P10721); test: as above; format: binding; settings: for per_control_1000nM KIT: 1000 nM compound; for per_control_10000nM KIT: 10000 nM compound
T4 construct: purchased Eurofins/DiscoverX
T4 sequence (P10721 26-976): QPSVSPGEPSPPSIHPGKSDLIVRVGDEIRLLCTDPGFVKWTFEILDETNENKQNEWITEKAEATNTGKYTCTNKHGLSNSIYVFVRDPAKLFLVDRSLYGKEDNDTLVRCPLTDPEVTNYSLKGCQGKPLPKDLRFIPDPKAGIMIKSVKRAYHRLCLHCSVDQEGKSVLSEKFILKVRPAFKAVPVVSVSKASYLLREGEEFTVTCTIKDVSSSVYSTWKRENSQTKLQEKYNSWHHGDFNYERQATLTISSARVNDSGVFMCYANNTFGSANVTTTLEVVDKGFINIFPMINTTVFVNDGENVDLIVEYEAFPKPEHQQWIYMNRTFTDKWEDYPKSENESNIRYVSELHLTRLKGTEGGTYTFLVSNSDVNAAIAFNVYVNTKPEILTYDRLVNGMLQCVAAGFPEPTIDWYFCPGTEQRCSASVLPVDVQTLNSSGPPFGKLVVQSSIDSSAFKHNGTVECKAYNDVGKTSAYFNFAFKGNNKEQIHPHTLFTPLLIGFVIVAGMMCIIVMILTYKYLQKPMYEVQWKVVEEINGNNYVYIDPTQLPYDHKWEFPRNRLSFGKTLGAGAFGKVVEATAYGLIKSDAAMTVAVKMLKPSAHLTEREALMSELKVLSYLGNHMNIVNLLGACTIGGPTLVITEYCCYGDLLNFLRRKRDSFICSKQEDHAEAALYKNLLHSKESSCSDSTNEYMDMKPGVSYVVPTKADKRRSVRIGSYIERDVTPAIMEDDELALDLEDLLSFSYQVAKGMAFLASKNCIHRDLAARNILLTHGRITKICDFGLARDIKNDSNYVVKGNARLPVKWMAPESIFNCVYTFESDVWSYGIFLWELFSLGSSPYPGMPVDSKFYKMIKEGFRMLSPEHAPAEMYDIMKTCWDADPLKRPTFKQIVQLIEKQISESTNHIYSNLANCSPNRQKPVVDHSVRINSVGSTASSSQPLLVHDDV
Experimental: as §1, §2

DU4475 cells = test: Cell viability, CellTiter Glo, DU4475; format: cell-based; settings: for IC50: 72h; for CTG normalized_to_DMSO: fraction relative to DMSO
Experimental: (§3) Drug sensitivity and resistance testing in MOLM13, DU4475, HDQP1, and IGROV1 cells was conducted at the Finnish Institute for Molecular Medicine (FIMM), University of Helsinki. In brief, the effects of compounds on cell viability and cell death were quantified with Cell-Titer Glo (Promega) and CellTox Green (Promega), respectively. Compounds or vehicle control were included in cell culture medium at described concentrations for 72h using an automated liquid dispenser in 384-well format. For KASUMI-1 experiments, cells were grown in 96-well plates and similarly incubated with compounds at indicated concentrations for 72h in RPMI + 10% FCS + Gentamicin, followed by lysis and quantification of cell viability with Cell-Titer Glo (Promega).
(§4) Raw values from viability and toxicity assays were normalized to DMSO and plotted to heat maps in R using pheatmap (RRID:SCR_016418). Dose-response curves were generated using the drc package in R [40]. In brief, nonlinear modelling was performed to calculate IC50 values for each compound where possible and resulting curves from drc and experimental values were plotted using ggplot2 (RRID:SCR_014601).

HDQP1 cells = test: Cell viability, CellTiter Glo, HDQP1; format: cell-based
Experimental: as §3, §4

[1] = one independent experiment per value, read-out: DU4475 IC50, individual dose-response curve (CellTiter Glo)
[2] = Homo sapiens, DU-4475, 72 h, mean of n = 3 independent experiments, read-out: DU4475 IC50 (CellTiter Glo)
[3] = Homo sapiens, DU-4475, 72 h, one independent experiment per value, read-out: DU4475 IC50, individual dose-response curve (CellTiter Glo)
[4] = 72h, mean of n = 3 independent experiments, read-out: HDQP1 IC50 (CellTiter Glo)
[5] = 72h, one independent experiment per value, read-out: HDQP1 IC50, individual dose-response curve (CellTiter Glo)
[6] = Homo sapiens, HDQ-P1, 72 h, one independent experiment per value, read-out: HDQP1 IC50, individual dose-response curve (CellTiter Glo)

Row | Compound | per_control_1000nM FLT3_autoinhibited (FLT3_autoinhibited) | per_control_10000nM FLT3_autoinhibited (FLT3_autoinhibited) | per_control_1000nM FLT3(D835V) (FLT3(D835V)) | per_control_10000nM FLT3(D835V) (FLT3(D835V)) | per_control_1000nM PDGFRB (PDGFRB) | per_control_10000nM PDGFRB (PDGFRB) | per_control_1000nM FLT3(ITD) (FLT3(ITD)) | per_control_10000nM FLT3(ITD) (FLT3(ITD)) | per_control_1000nM FLT3(ITD,D835V) (FLT3(ITD,D835V)) | per_control_10000nM FLT3(ITD,D835V) (FLT3(ITD,D835V)) | per_control_1000nM KIT (KIT) | per_control_10000nM KIT (KIT) | IC50 (DU4475 cells; [1]) | IC50 (DU4475 cells; [2]) | IC50 (DU4475 cells; [3]) | IC50 (HDQP1 cells; [4]) | IC50 (HDQP1 cells; [5]) | IC50 (HDQP1 cells; [6]) | further results
1 | COc1ccc(-c2cc(NC(=O)c3ccc(C(C)(C)C)cc3)[nH]n2)cc1 [Compound 3i-1103] | 1.8 percent control | 0.4 percent control | 0.9 percent control | 0 percent control | 0 percent control | 0 percent control | 1.2 percent control | 2.1 percent control | 42 percent control | 6 percent control | 0 percent control | 0 percent control | 18.2 µM and 19 µM | 19.8 µM | 22.1 µM | – | – | – | CTG normalized_to_DMSO (DU4475 cells; DU4475, exp 1, 0.3 µM): 1.0025; CTG normalized_to_DMSO (DU4475 cells; DU4475, exp 1, 1 µM): 0.9677; CTG normalized_to_DMSO (DU4475 cells; DU4475, exp 1, 3 µM): 0.8934; CTG normalized_to_DMSO (DU4475 cells; DU4475, exp 1, 10 µM): 0.6779; CTG normalized_to_DMSO (DU4475 cells; DU4475, exp 1, 30 µM): 0.07396
2 | Cn1cc(-c2cc(NC(=O)c3ccc(C(C)(C)C)cc3)n[nH]2)ccc1=O [Compound 3i-1248, 4-(tert-butyl)-N-(5-(1-methyl-6-oxo-1,6-dihydropyridin-3-yl)-1H-pyrazol-3-yl)benzamide] | 63 percent control | 12 percent control | 1.3 percent control | 0.7 percent control | 11 percent control | 0.35 percent control | 0 percent control | 12 percent control | 5.3 percent control | 0.15 percent control | 8.2 percent control | 0.1 percent control | 9.8 µM and 9.5 µM | 9.4 µM | 8.8 µM | > 10 µM | 21.1 µM and 22.1 µM | 18.8 µM | IC50 (HDQP1 cells; 72h, mean of n = 3 independent experiments, listed as 1248, read-out: HDQP1 IC50 (CellTiter Glo)): 20.7 µM
3 | Cc1cc(-c2cc(NC(=O)c3ccc(C(C)(C)C)cc3)[nH]n2)ccn1 [Compound 3i-1246, 4-(tert-butyl)-N-(3-(2-methylpyridin-4-yl)-1H-pyrazol-5-yl)benzamide] | 0 percent control | 1 percent control | 0.5 percent control | 0.55 percent control | 0 percent control | 0 percent control | 2.7 percent control | 1.2 percent control | 0.55 percent control | 0.2 percent control | 0 percent control | 0 percent control | 7.6 µM and 7.8 µM | 7.5 µM | 7.1 µM | > 10 µM | 10.5 µM and 19.5 µM | 10.1 µM | IC50 (HDQP1 cells; Homo sapiens, HDQ-P1, 72 h, mean of n = 3 independent experiments, read-out: HDQP1 IC50 (CellTiter Glo)): 13.4 µM
4 | CC(C)(C)c1ccc(C(=O)Nc2cc(-c3ccccc3)n[nH]2)cc1 [Compound 3i-1247, 4-(tert-butyl)-N-(3-phenyl-1H-pyrazol-5-yl)benzamide] | 1.1 percent control | 0 percent control | 2.5 percent control | 0 percent control | 0 percent control | 0 percent control | 3.2 percent control | 12 percent control | 11 percent control | 0.3 percent control | 0 percent control | 0 percent control | 2.5 µM and 2.9 µM and 2.7 µM | – | – | – | > 30 µM | – | activity in DU4475 cells (DU4475 cells; compared to dual FLT3/TAF1(2) inhibitors 3i-1103, 3i-1246, 3i-1248): superior activity
